In data set [1] the target is T1, Prostaglandin F (FP) Receptor (Homo sapiens, UniProt P43088).
T1 construct: host or cells: Ca2+ optimized hematopoietic cell lines (rat)
In words: Ca2+ assay (FLIPR) for the GPCR prostaglandin F (FP) receptor, agonist and antagonist mode. The format is cell-based. Here is the method:
Biological and Pharmacological Methods 1. Ca^2+ Assays for the GPCRs Motilin Receptor, Prostaglandin F (FP) Receptor, 5-hydroxytryptamine 2B (5-HT2B) Receptor, and Purinoreceptor P2Y1
Assays were performed using on a FLIPR^TETRA fluorometric imaging plate reader (Molecular Devices) with ScreenWorks Version 2 (Molecular Devices) as device operating and data analysis software.
Dose dependent agonist and antagonist activities were determined. Percentage activation and percentage inhibition values were determined.
Percentage activation was determined upon initial addition of the sample compounds followed by 10 minutes incubation at 25° C. Following compound incubation, reference agonists were added at EC80 to determine percentage inhibition.
Reference agonists were purchased from reputable commercial vendors and prepared according to each ligand's specifications. All handling of ligands were done to ensure proper control throughout the experiments.
Example compounds were weighed on a Microbalance (Mettler MX5) and dissolved in 100% DMSO to a final concentration of 2.5 mM and subsequently diluted into the assay buffer.
The Assay buffer was a supplemented HBSS (Hank's Balanced Salt Solution). HBSS was supplemented with 20 mM HEPES (4-(2-hydroxyethyl)-piperazin-1-ethansulfonic acid) and 2.5 mM Probenecid (Sigma P8761).
GPCR assays were performed using Ca^2+ optimized hematopoietic cell lines (rat) with cultures never exceeding 90% confluency. Cells were harvested and seeded (from cultures at less than 90% confluency) at 50000 cells/well for a 96-well plate (12500 cells/well for 384). After seeding, the assay plates were incubated for forty-five (45) minutes at room temperature. After room temperature incubation, the assay plates were incubated at 37° C. 5% CO2 for 24 hours prior to assaying.
All GPCR assays were performed using Fluo-8 Ca^2+ dye. Ca^2+ dye was prepared at 1× dye concentration in GPCR assay buffer. After 24 hours of incubation, cells were washed with GPCR assay buffer, and then Ca^2+-dye (100 μL/well) was added.
The plates were incubated for 90 minutes at 30° C. 5% CO2 prior to FLIPR assay.
Compound plates were prepared to add 50 μL/well during the agonist assay mode. During the FLIPR assay, 50 μL/well from the compound plate was diluted 3-fold into the existing 100 μL/well from the dye loading step. Therefore all compounds were prepared as 3× the final concentration desired in the assay.
After completion of the first single addition assay run, assay plate was removed from the FLIPR Tetra and placed at 25° C. for seven (7) minutes before antagonist assay.
Using the EC80 values determined during the agonist assay, all pre-incubated sample compound and reference antagonist (if applicable) wells were stimulated at the EC80 of the reference agonist. As reference ligands for the first three assays their obvious natural ligands motilin, prostaglandin F2α, and serotonin (5-HT, 5-Hydroxytryptamine) were used; and for the P2Y1 assay 2MeSATP (2-methyl-thio-adeno-sine 5′-triphosphate, i.e. (2R,3S,4R)-5-(6-amino-2-methylsulfanyl-purin-9-yl)-3,4-dihydroxy-tetrahydrofuran-2-yl]methyl (hydroxy-phosphonooxy-phosphoryl)hydrogen phosphate) was applied.
After the addition of the reference agonist fluorescence was monitored for 180 sec using FLIPR Tetra.
Data Analysis and Results:
From the FLIPR data, with negative control correction enabled, the maximum statistic for each well was exported and percentage activation relative to Emax control was calculated.

A short description of data set [2]: in vitro. As to conditions: plasma; for Plasma Stability 240 min mouse [% remain.]: 4 h. It is filed as in vitro ADME, mouse.
The nature of data set [3]: Metabolic stability assay, CD-1 mouse microsomes. It is filed as in vitro ADME. The conditions noted are these: microsomes; for Metabolic Stability 60 min mouse [% remain.]: 1 h. Here is the method:
(§1) 4. Plasma and Metabolic Stability Assays
(§2) The assays were conducted according to literature precedents (F. P. Guengerich, Analysis and Characterization of Enzymes; in: Principles and Methods of Toxicology; A. W. Hayes (Ed.) Raven Press: New York, 1989, 777-813; R. Singh et al., In vitro metabolism of a potent HIV-protease inhibitor (141W94) using rat, monkey and human liver S9, Rapid Commun. Mass Spectrom. 1996, 10, 1019-1026).
(§3) Metabolic Stability Assay
(§4) Microsomes from a human 50 donor mixed gender pool and 1:1 mixtures of microsomes from CD-1 mouse single-gender pools are purchased from Celsis (Belgium). The enzymatic reaction is performed in a buffer containing an NADPH regeneration system and microsomes with the following end concentrations: 100 mM potassium phosphate buffer (all from Sigma), 1 mg/mL glucose-6-phosphate, 1 mg/mL β-nicotinamide adenine dinucleotide phosphate (NADP), 0.65 mg/mL magnesium chloride, 0.8 units/mL of glucose-6-phosphate dehydrogenase (prediluted with 5 mM citrate buffer), 10 μM compound and 1 mg/ml microsomal protein. Compounds are incubated at 37° C. in duplicates and samples are taken after 0, 20 and 60 minutes. After acetonitrile precipitation (2 volumes) and HPLC/MS/MS analysis metabolic turnover is expressed in % of the initial 0 minutes value and half life T½ (min) is calculated. Verapamil for human and propranolol for mouse are used as reference and are assayed with every experimental set.

The nature of data set [4]: Metabolic stability assay, human microsomes. The format is in vitro ADME. As to conditions: human, microsomes; for Metabolic Stability 60 min hum [% remain.]: 1 h. As for the experimental part:
as §1, §2, §3, §4

The nature of data set [5]: in vitro. The format is in vitro ADME, human. As to conditions: human, plasma; for Plasma Stability 240 min hum [% remain.]: 4 h.

The source of these data is patent US9512139B2, “Conformationally constrained, fully synthetic macrocyclic compounds” (POLYPHOR AG, priority 2009, dated 2016).

Molecules are shown by their SMILES.
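Throughout, for Plasma Stability 240 min mouse [% remain.]: sodium citrate stabilized mouse plasma, parent compound quantified by HPLC/MS/MS relative to its peak area at time zero, run in triplicate.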
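Throughout, for Plasma Stability T½ [min] mouse: sodium citrate stabilized mouse plasma, parent compound quantified by HPLC/MS/MS relative to its peak area at time zero, run in triplicate.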

T1 sequence (P43088 whole entry): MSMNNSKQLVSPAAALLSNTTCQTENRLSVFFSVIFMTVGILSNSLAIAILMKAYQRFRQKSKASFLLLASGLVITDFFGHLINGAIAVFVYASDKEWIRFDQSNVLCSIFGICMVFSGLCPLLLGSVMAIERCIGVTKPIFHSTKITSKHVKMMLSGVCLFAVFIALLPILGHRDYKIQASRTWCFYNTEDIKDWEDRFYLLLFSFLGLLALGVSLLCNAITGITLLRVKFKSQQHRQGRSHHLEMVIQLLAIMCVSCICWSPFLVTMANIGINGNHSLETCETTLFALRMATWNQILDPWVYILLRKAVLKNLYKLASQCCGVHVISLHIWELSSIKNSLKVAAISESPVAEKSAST

By IC50 is commonly meant the concentration that gives 50% inhibition. A high value points to lower potency. Broadly, the inhibition is the share of the control response that was lost under treatment. The low end stands for little suppression, the high end for strong suppression. Turning to `CN1CCC[C@H](NC(=O)Cc2ccc(-c3ccccc3)cc2)C(=O)N2C[C@@H](NC(=O)Nc3cccc(N(C)C)c3)C[C@H]2COc2cccc(c2)C1=O` [Ex. 526, 2-[1,1′-biphenyl]-4-yl-N-[(4S,6S,10S)-6-({[3-(dimethylamino)anilino]carbonyl}amino)-14-methyl-9,15-dioxo-2-oxa-8,14-diazatricyclo[14.3.1.0^4,8]icosa-1(20),16,18-trien-10-yl]acetamide], in data set [1], the half-inhibitory concentration (IC50) amounted to 180 nM and testing at 10 µM gave an inhibition of 99%.

In data set [1], `CN1CCC[C@H](NC(=O)Cc2ccc(-c3ccccc3)cc2)C(=O)N2C[C@@H](NC(=O)Cc3ccc4ccccc4c3)C[C@H]2COc2cccc(c2)C1=O` [Ex. 522, 2-[1,1′-biphenyl]-4-yl-N-[(4S,6S,10S)-14-methyl-6-{[2-(2-naphthyl)acetyl]amino}-9,15-dioxo-2-oxa-8,14-diazatricyclo[14.3.1.0^4,8]icosa-1(20),16,18-trien-10-yl]acetamide] yielded an IC50 of 350 nM and an inhibition at 10 µM of 95%.

In data set [1], `CN1CCC[C@H](NC(=O)Nc2cccc(N(C)C)c2)C(=O)N2C[C@@H](NC(=O)Cc3ccc4ccccc4c3)C[C@H]2COc2cccc(c2)C1=O` [Ex. 507, N-[(4S,6S,10S)-10-({[3-(dimethylamino)anilino]carbonyl}amino)-14-methyl-9,15-dioxo-2-oxa-8,14-diazatricyclo[14.3.1.0^4,8]icosa-1(20),16,18-trien-6-yl]-2-(2-naphthyl)acetamide] showed an IC50 of 1100 nM and an inhibition at 10 µM of 51%.

For `CN1CC(=O)N2C[C@@H](NC(=O)CCC(=O)O)C[C@H]2COc2ccc(F)cc2C(=O)N(C)[C@@H](C(=O)NCc2ccc3ccccc3c2)CCC1=O` [Ex. 95], in “in vitro [2]” (mouse), the Plasma Stability T½ [min] mouse is over 240 min and the “Plasma Stability 240 min mouse [% remain.]” value is on record as 93 % remain. In data set [3] (mouse), the Metabolic Stability T½ [min] mouse is over 60 min and the “Metabolic Stability 60 min mouse [% remain.]” value was determined as 94 % remain. Moreover, in data set [4], the Metabolic Stability T½ [min] hum is over 60 min and the “Metabolic Stability 60 min hum [% remain.]” value was determined as 76 % remain. Further, in “in vitro [5]”, the Plasma Stability T½ [min] hum is over 240 min and the “Plasma Stability 240 min hum [% remain.]” value turned out to be 100 % remain.

One may read the half-life as the time in which the quantity being followed falls by half. Low values mean fast loss, high ones slow loss. In the case of `CNC(=O)[C@H]1CCC(=O)N(C)CC(=O)N2C[C@@H](NC(=O)Cc3ccc4ccccc4c3)C[C@H]2COc2ccc(F)cc2C(=O)N1C` [Ex. 93, (2S,11R,19aS)-15-fluoro-N,7,12-trimethyl-2-{[2-(2-naphthyl)acetyl]amino}-5,8,13-trioxo-2,3,6,7,8,9,10,11,12, 13,19,19a-dodecahydro-1H,5H-pyrrolo[2,1-c][1,4,7,12] benzoxatriazacyclopentadecine-11-carboxamide], in “in vitro [2]” (both, CD-1, mouse, 10 µM), the Plasma Stability T½ [min] mouse is over 240 min and the “Plasma Stability 240 min mouse [% remain.]” value was determined as 100 % remain. In data set [3] (both sexes, CD-1, mouse), this compound had a half-life at 10 µM of 0.483 h. Besides, the “Metabolic Stability 60 min mouse [% remain.]” value in data set [3] (both, CD-1, mouse, 10 µM) is 15 % remain. The half-life at 10 µM in data set [4] (both sexes) amounted to 0.4 h. Moreover, in data set [4] (both, 10 µM), the “Metabolic Stability 60 min hum [% remain.]” value stood at 1 % remain. Moreover, in “in vitro [5]” (10 µM), the Plasma Stability T½ [min] hum was over 240 min and the “Plasma Stability 240 min hum [% remain.]” value is listed as 100 % remain.

Turning to `CN1CC(=O)N2C[C@H](NC(=O)CN3CCCC3)C[C@H]2COc2ccc(cc2)C(=O)N(C)[C@H](C(=O)NCc2ccncc2)CCC1=O` [Ex. 266, (4S,6R,15S)-11,16-dimethyl-9,12,17-trioxo-N-(4-pyridinylmethyl)-6-{[2-(1-pyrrolidinyl)acetyl]amino}-2-oxa-8,11,16-triazatricyclo[16.2.2.0^4,8]docosa-1(20),18,21-triene-15-carboxamide], in “in vitro [2]” (both, CD-1, mouse, 10 µM), the Plasma Stability T½ [min] mouse was over 240 min and the “Plasma Stability 240 min mouse [% remain.]” value is 74 % remain. In data set [3] (both, CD-1, mouse, 10 µM), the Metabolic Stability T½ [min] mouse is over 60 min and the “Metabolic Stability 60 min mouse [% remain.]” value is given as 98 % remain. Moreover, in data set [4] (both, 10 µM), the Metabolic Stability T½ [min] hum is over 60 min and the “Metabolic Stability 60 min hum [% remain.]” value is 100 % remain. In “in vitro [5]” (10 µM), the Plasma Stability T½ [min] hum is over 240 min and the “Plasma Stability 240 min hum [% remain.]” value is recorded as 92 % remain.

Consider `CN1CC(=O)N2C[C@@H](N)C[C@H]2COc2ccc(F)cc2C(=O)N(C)[C@@H](C(=O)NCc2ccc3ccccc3c2)CCC1=O` [Ex. 91, (2S,11R,19aS)-2-amino-15-fluoro-7,12-dimethyl-N-(2-naphthylmethyl)-5,8,13-trioxo-2,3,6,7,8,9,10,11,12,13,19,19a-dodecahydro-1H,5H-pyrrolo[2,1-c][1,4,7,12] benzoxatriazacyclopentadecine-11-carboxamide], for which, in the data set “in vitro [2]” (both, CD-1, mouse, 10 µM), the Plasma Stability T½ [min] mouse was over 240 min and the “Plasma Stability 240 min mouse [% remain.]” value came to 88 % remain. For the same compound, in data set [3] (both, CD-1, mouse, 10 µM), the Metabolic Stability T½ [min] mouse was over 60 min and the “Metabolic Stability 60 min mouse [% remain.]” value came out at 95 % remain. In addition, in data set [4] (both, 10 µM), the Metabolic Stability T½ [min] hum was over 60 min and the “Metabolic Stability 60 min hum [% remain.]” value amounted to 91 % remain. Moreover, in “in vitro [5]” (10 µM), the Plasma Stability T½ [min] hum is over 240 min and the “Plasma Stability 240 min hum [% remain.]” value is given as 96 % remain.

`CCN(CC)[C@H]1C[C@H]2COc3ccc(F)cc3C(=O)N(C)[C@H](C(=O)N3CCCC3)CCC(=O)N(C)CC(=O)N2C1` [Ex. 43, (2S,11S,19aS)-2-(diethylamino)-15-fluoro-7,12-dimethyl-11-(1-pyrrolidinylcarbonyl)-2,3,6,7,9,10,11,12,19,19a-decahydro-1H,5H-pyrrolo [2,1-c] [1,4,7,12]benzoxatriazacyclopentadecine-5,8,13-trione]: in “in vitro [2]” (both, CD-1, mouse, 10 µM), the Plasma Stability T½ [min] mouse was over 240 min and the “Plasma Stability 240 min mouse [% remain.]” value was 89 % remain. For the same compound, in data set [3] (both, CD-1, mouse, 10 µM), the Metabolic Stability T½ [min] mouse is over 60 min and the “Metabolic Stability 60 min mouse [% remain.]” value came to 98 % remain. Besides, in data set [4] (both, 10 µM), the Metabolic Stability T½ [min] hum was over 60 min and the “Metabolic Stability 60 min hum [% remain.]” value turned out to be 100 % remain. In “in vitro [5]” (10 µM), the Plasma Stability T½ [min] hum is over 240 min and the “Plasma Stability 240 min hum [% remain.]” value was determined as 82 % remain.

For `CN1CCC[C@H](N2CCN(S(C)(=O)=O)CC2)C(=O)N2C[C@@H](O)C[C@H]2COc2cccc(c2)C1=O` [Ex. 583, (4S,6S,10S)-6-hydroxy-14-methyl-10-[4-(methylsulfonyl)piperazino]-2-oxa-8,14-diazatricyclo[14.3.1.0^4,8]icosa-1(20),16,18-triene-9,15-dione], in “in vitro [2]” (both, CD-1, mouse, 10 µM), the Plasma Stability T½ [min] mouse was over 240 min and the “Plasma Stability 240 min mouse [% remain.]” value worked out at 83 % remain. In data set [3] (both, CD-1, mouse, 10 µM), the Metabolic Stability T½ [min] mouse is over 60 min and the “Metabolic Stability 60 min mouse [% remain.]” value worked out at 95 % remain. In addition, in data set [4] (both, 10 µM), the Metabolic Stability T½ [min] hum is over 60 min and the “Metabolic Stability 60 min hum [% remain.]” value was 100 % remain. Further, in the data set “in vitro [5]” (10 µM), the Plasma Stability T½ [min] hum is over 240 min and the “Plasma Stability 240 min hum [% remain.]” value worked out at 91 % remain.
